This note sets out measurements from patent US20110288154A1, “RNA Interference Mediated Inhibition of Epithelial Sodium Channel (ENaC) Gene Expression Using Short Interfering Nucleic Acid (siNA)” (MERCK & CO., INC., priority 2008, published 2011).

[invAb] = inverted abasic unit; d = 2'-deoxy (DNA); m = 2'-O-methyl; r = 2'-OH (RNA); f = 2'-fluoro

The subject of this data set is ENaCα mRNA. The data set can be described thus: Screening of ENaCα siNAs in human A549 cells (quantitative RT-PCR). The data set is classed as cell-based. More on the design: Percent Reduction of the ENaCα mRNA relative to a non-targeting control siNA (NTC): concentration or dose not given beside the values. To be noted: human A549 cells, n = 3; for Avg ENaCα Expression: 25 nM siNA with Lipofectamine 2000, harvested 24 hours post-transfection; for Mean (level of ENaCα expression normalized to the level of GAPDH) / Percent Reduction of the ENaCα mRNA relative to a non-targeting control siNA (NTC) / Avg GAPDH Expression: 24 hours post-transfection; for Avg GAPDH Expression: housekeeping gene used for normalisation. The procedure:
siNA constructs (Table 1b) may be tested for efficacy in reducing ENaC RNA expression in, for example, A549 human lung carcinoma cells. A549 (human; ATCC cat# CCL-185) cells were cultured at 37° C. in the presence of 5% CO2 and grown in Ham's F12K medium with 2 mM L-glutamine adjusted to contain 1.5 g/L sodium bicarbonate and supplemented with fetal bovine serum at a final concentration of 10% and 100 U/mL penicillin. The A549 cells were plated approximately 24 hours before transfection in 96-well plates at 7,500 cells/well, 100 μl/well. After 24 hours complexes containing siNA and Lipofectamine 2000 (Invitrogen) were created as follows: a solution of Lipofectamine 2000 in OPTI-MEM was prepared containing Lipofectamine 2000 at a final concentration of 14 μg/ml. In parallel, solutions of the siNAs were prepared in OPTI-MEM at a final concentration of 150 nM. After both solutions were incubated at 20° C. for 20 minutes an equal volume of the siNA solutions and the Lipofectamine 2000 solution were added together for each of the siNAs. The resultant solution has the siNAs at a final concentration of 75 nM and Lipofectamine 2000 at a final concentration of 7 μg/ml. This solution was incubated at 20° C. for 20 minutes. After incubation 50 μl of the solution were added to each of the wells (in triplicate). The final concentration of siNA in each well was 25 nM and the final concentration of Lipofectamine 2000 in each well was 2.33 μg/ml. […] Dose response curves were determined in a similar manner with each concentration being done in triplicate and maintaining a constant amount of Lipofectamine 2000 in each transfection.
RNA was extracted from 96-well plates using the Invitek Invisorb RNA Cell HTS 96 Kit/C (Cat# 70619000) with a slightly modified protocol. The details of the protocol for isolating RNA from each plate are described as follows:
1) Aspirate media with rake 2) Add 150 ul/well Lysis buffer 3) Place on plate shaker for 1 minute 4) Place DNA binding plate on top of 0.5 ml collection plate 5) Pipette 190 ul up and down twice and add to DNA binding plate 6) Cover plate 7) Centrifuge plates 4 minutes at 4000 RPM 8) Discard DNA binding plate 9) Place the RNA binding plate on top of 2 ml collection plate 10) Add 150 ul/well of Binding Buffer R to 0.5 ml collection plate 11) Move contents of 0.5 ml collection plate to RNA binding plate 12) Let incubate for 1 minute 13) Centrifuge plates 4 minutes at 4000 RPM 14) Add 600 ul/well of Wash Buffer R1 to RNA binding plate 15) Centrifuge plates 4 minutes at 4000 RPM 16) Dump wash buffer from 2 ml collection plate 17) Add 400 ul/well of Wash Buffer R2 to RNA binding plate 18) Centrifuge plates 4 minutes at 4000 RPM 19) Add 400 ul/well of Wash Buffer R2 to RNA binding plate 20) Centrifuge plates 10 minutes at 4000 RPM 21) Dump wash buffer from 2 ml collection plate 22) Centrifuge plates 3 minutes at 4000 RPM 23) Discard 2 ml collection plate and place RNA binding plate on to microtiter plate 24) Add 100 ul/well of elution buffer to RNA binding plate 25) Incubate for 2 minutes 26) Seal plate 27) Centrifuge plates 3 minutes at 4000 RPM 28) Discard RNA binding plate 29) Cover microtiter plate for storage in −80 freezer
A series of probes and primers were used to detect the various mRNA transcripts of the genes of ENaCa and GAPDH in mouse, rat, and human cell lines. The assays were performed on an ABI 7500 instrument, according to the manufacturer's instructions. Within each experiment, the baseline was set in the exponential phase of the amplification curve, and based on the intersection point of the baselines with the amplification curve, a Ct value was assigned by the instrument. This Ct value was then assigned a QTY value based on the Standard Curve. The standard curve in the various experiments herein used 1 ng to 300 ng of RNA extracted from the same cell line used for the experimental transfections. […]

In the case of “B AAccGCAuGAAGAcGGccu TTB / AGGccGucuucAuGcGGuuUU (chain 1 AACCGCAUGAAGACGGCCUTT; chain 2 AGGCCGUCUUCAUGCGGUUUU; siRNA; chain 1: sugars from the 5' end ddffdddfdddddfddfffdd, [invAb] at 5' end, 3' end, backbone not given here; chain 2: sugars from the 5' end rrrffmfffffmfmfmmffmm, backbone not given here) [Site 337]”, the “Avg ENaCα Expression” value is reported as 67.27, the “Mean (level of ENaCα expression normalized to the level of GAPDH)” value was determined as 1.48, the “Percent Reduction of the ENaCα mRNA relative to a non-targeting control siNA (NTC)” value stood at 5.0% and the “Avg GAPDH Expression” value stood at 49.84.

For “B AAccuGGGcAGccAGuGGA TTB / UCCAcuGGcuGcccAGGuuUU (sense AACCUGGGCAGCCAGUGGATT; antisense UCCACUGGCUGCCCAGGUUUU; siRNA; sense: sugars from the 5' end ddfffdddfddffddfddrdd, [invAb] at 5' end, 3' end, backbone not given here; antisense: sugars from the 5' end rrrmffmmffmfffmmmffmm, backbone not given here) [Site 1747]”, the “Avg ENaCα Expression” value is 75.36, the “Mean (level of ENaCα expression normalized to the level of GAPDH)” value is listed as 0.58, the “Percent Reduction of the ENaCα mRNA relative to a non-targeting control siNA (NTC)” value stood at 12.3% and the “Avg GAPDH Expression” value stood at 130.33.

Consider “B AGccAGuGGAGccuGuGGu TTB / ACCAcAGGcuccAcuGGcuUU (sense AGCCAGUGGAGCCUGUGGUTT; antisense ACCACAGGCUCCACUGGCUUU; siRNA; sense: DNA at AGT, 2'-fluoro at CU, [invAb] at 5' end, 3' end, backbone not given here; antisense: sugars from the 5' end rrrmfmmmffffmffmmffmm, backbone not given here) [Site 1756]”, for which the “Avg ENaCα Expression” value is given as 73.20, the “Mean (level of ENaCα expression normalized to the level of GAPDH)” value turned out to be 0.71, the “Percent Reduction of the ENaCα mRNA relative to a non-targeting control siNA (NTC)” value was −8.2% and the “Avg GAPDH Expression” value is listed as 102.64.

Take “B AGuGuGGcuGuGccuAcAu TTB / AUGuAGGcAcAGccAcAcuUU (sense AGUGUGGCUGUGCCUACAUTT; antisense AUGUAGGCACAGCCACACUUU; siRNA; sense: DNA at AGT, 2'-fluoro at CU, [invAb] at 5' end, 3' end, backbone not given here; antisense: sugars from the 5' end rrrfmmmfmfmmffmfmffmm, backbone not given here) [Site 1382]”: the “Avg ENaCα Expression” value was determined as 72.49, the “Mean (level of ENaCα expression normalized to the level of GAPDH)” value is 1.30, the “Percent Reduction of the ENaCα mRNA relative to a non-targeting control siNA (NTC)” value turned out to be 16.6% and the “Avg GAPDH Expression” value turned out to be 57.29.

Take “B AccGcAuGAAGAcGGccuu TTB / AAGGccGucuucAuGcGGuUU (chain 1 ACCGCAUGAAGACGGCCUUTT; chain 2 AAGGCCGUCUUCAUGCGGUUU; siRNA; chain 1: DNA at AGT, 2'-fluoro at CU, [invAb] at 5' end, 3' end, backbone not given here; chain 2: sugars from the 5' end rrrmffmfffffmfmfmmfmm, backbone not given here) [Site 338]”: the “Avg ENaCα Expression” value is reported as 65.83, the “Mean (level of ENaCα expression normalized to the level of GAPDH)” value is given as 0.90, the “Percent Reduction of the ENaCα mRNA relative to a non-targeting control siNA (NTC)” value came out at 42.2% and the “Avg GAPDH Expression” value stood at 76.32.

Take “B AccuGGGcAGccAGuGGAG TTB / CUCcAcuGGcuGcccAGGuUU (sense ACCUGGGCAGCCAGUGGAGTT; antisense CUCCACUGGCUGCCCAGGUUU; siRNA; sense: DNA at AGT, 2'-fluoro at CU, [invAb] at 5' end, 3' end, backbone not given here; antisense: sugars from the 5' end rrrfmffmmffmfffmmmfmm, backbone not given here) [Site 1748]”: the “Avg ENaCα Expression” value was 80.25, the “Mean (level of ENaCα expression normalized to the level of GAPDH)” value is recorded as 0.61, the “Percent Reduction of the ENaCα mRNA relative to a non-targeting control siNA (NTC)” value was found to be 7.2% and the “Avg GAPDH Expression” value is given as 131.14.

For the substance “B GGGcAGccAGuGGAGccuG TTB / CAGGcuccAcuGGcuGcccUU (sense GGGCAGCCAGUGGAGCCUGTT; antisense CAGGCUCCACUGGCUGCCCUU; siRNA; sense: DNA at AGT, 2'-fluoro at CU, [invAb] at 5' end, 3' end, backbone not given here; antisense: sugars from the 5' end rrrmffffmffmmffmfffmm, backbone not given here) [Site 1752]”, the “Avg ENaCα Expression” value came to 82.06, the “Mean (level of ENaCα expression normalized to the level of GAPDH)” value worked out at 0.60, the “Percent Reduction of the ENaCα mRNA relative to a non-targeting control siNA (NTC)” value was 9.4% and the “Avg GAPDH Expression” value is reported as 137.51.

For “B GGcAGccAGuGGAGccuGu TTB / ACAGGcuccAcuGGcuGccUU (sense GGCAGCCAGUGGAGCCUGUTT; antisense ACAGGCUCCACUGGCUGCCUU; siRNA; sense: DNA at AGT, 2'-fluoro at CU, [invAb] at 5' end, 3' end, backbone not given here; antisense: sugars from the 5' end rrrmmffffmffmmffmffmm, backbone not given here) [Site 1753]”, the “Avg ENaCα Expression” value is recorded as 84.05, the “Mean (level of ENaCα expression normalized to the level of GAPDH)” value is recorded as 0.66, the “Percent Reduction of the ENaCα mRNA relative to a non-targeting control siNA (NTC)” value is on record as 0.6% and the “Avg GAPDH Expression” value is 128.19.

Turning to “B GGcuGuGccuAcAucuucu TTB / AGAAGAuGucGGcAcAGccUU (sense GGCUGUGCCUACAUCUUCUTT; antisense AGAAGAUGUCGGCACAGCCUU; siRNA; sense: DNA at AGT, 2'-fluoro at CU, [invAb] at 5' end, 3' end, backbone not given here; antisense: sugars from the 5' end rrrmmmfmffmmfmfmmffmm, backbone not given here) [Site 1387]”, the “Avg ENaCα Expression” value is recorded as 46.10, the “Mean (level of ENaCα expression normalized to the level of GAPDH)” value was found to be 0.43, the “Percent Reduction of the ENaCα mRNA relative to a non-targeting control siNA (NTC)” value is given as 34.2% and the “Avg GAPDH Expression” value turned out to be 106.19.

For the substance “B GcAuGAAGAcGGccuucuG TTB / CAGAAGGccGuCuucAuGcUU (chain 1 GCAUGAAGACGGCCUUCUGTT; chain 2 CAGAAGGCCGUCUUCAUGCUU; siRNA; chain 1: DNA at AGT, 2'-fluoro at CU, [invAb] at 5' end, 3' end, backbone not given here; chain 2: sugars from the 5' end rrrmmmmffmfmfffmfmfmm, backbone not given here) [Site 341]”, the “Avg ENaCα Expression” value came out at 62.42, the “Mean (level of ENaCα expression normalized to the level of GAPDH)” value stood at 1.62, the “Percent Reduction of the ENaCα mRNA relative to a non-targeting control siNA (NTC)” value is on record as −4.3% and the “Avg GAPDH Expression” value is reported as 48.12.
